Test results reported in US11447638B2, “Acetalanthraquinone derivatives useful for cellular staining” (BIOSTATUS LIMITED, priority 2016, dated 2022).

Columns and labels:
[1] = system: A549; assay: MTT cellular viability (growth inhibition) assay, A549; type: cell-based; details: Homo sapiens, 0.25-100 μM, 72 h, Table 3
Method: (§1) The viability of A549 or MCF7 in response to compounds was determined using the MTT (3-(4,5-dimethylthiazolyl-2-)-2, 5-diphenyltetrazolium bromide) assay according to the protocol set out in Mosmann T., Rapid colorimetric assay for cellular growth and survival: application to proliferation and cytotoxicity assays. Journal of immunological methods 1983; 65:55-63.
(§2) Initially, cells were seeded into a rounded-bottom 96 well plate (Corning) at six different cell seeding densities (0.5×104, 1×104, 2×104, 3×104, 4×104, and 5×104) per mL of R10 media (cells/mL) in order to optimise the assay and establish the most suitable seeding assay. Concentration of 1×10^4 cells/mL was determined to be the optimum seeding density for both cell lines for 96 h total incubation. A control lane contained supplemented R10 only. The 96 well plates were incubated overnight at 37° C., 5% CO2 and 100% humidity to allow cell adhesion. Cells were then treated respectively with novel AAQs (0.25-100 μM) or growth inhibition (IC50) of compounds of the invention was studied against MCF7 and A549 cancer cell lines. Compounds were tested with a concentration range between 0.25 and 100 μM for 72 h and doxorubicin, as positive cytotoxic control, was tested in parallel at the same doses.

[2] = system: fixed human osteosarcoma U-2 OS cells; assay: Labelling of fixed cells, wide-field fluorescence microscopy; type: cell-based; details: 20 μM, 1 h exposure in PBS, FIG. 2
Method: Cells were seeded in a 24 well coverslip bottomed-plate, cultured overnight in McCoys media. 24 or 48 hours later the cells were washed gently with 3×2 mL PBS per well. The PBS was removed and 0.5 mL of 4% paraformaldehyde solution [a 4% paraformaldehyde solution in PBS was made fresh each time from a 16% stock solution (Thermo Fisher Scientific)] was added in each well and cells were incubated for 30 min. The paraformaldehyde was removed and cells were washed 3×2 mL PBS per well. 1 mL of PBS or HEPES was added to each well.
(§3) Before analysis, cells were incubated at 37° C. in the dark for the period designated. Samples were analysed directly without any further washing step. For live cell labelling cells were seeded, plated in a similar way, into a similar multi-well dish for optimal optical performance and could be used across all microscope platforms.
(§4) This basic protocol was the standard for testing the patterns of AAQ agents at 20 μM, compared to 20 μM of DRAQ5 as the benchmark reference (both in terms of cellular location and ability to detect the red fluorescence).
Low resolution wide-field fluorescence microscopy was used to evaluate cell labelling in fixed human osteosarcoma U-2 OS cells. The system was an Axiovert 100 microscope (Carl Zeiss, Welwyn Garden City, UK) ×10 0.3 NA air objective lens and an ORCA-ER CCD camera (Hamamatsu, Reading, UK). Illumination was controlled by a shutter in front of the transmission lamp. Image capture was controlled using Metamorph software. This evaluates the ability of the compounds to label cellular compartments without active uptake or efflux prohibiting delivery into the given cell. Image collection was performed after 1 h of exposure to probes in PBS. The calibration bar represents 50 μm.

[3] = system: U-2 OS cells; assay: Confocal laser scanning microscopy (CLSM) localisation analysis; type: cell-based, human; details: 30 min incubation, Ex 637 nm, Em >665 nm, FIG. 4 and 5
Method: Confocal laser scanning microscopy (CLSM) was used to analyse the localisation of compounds BST-100, BST-101 and BST-106 with the U-2 OS cells, as it permitted the acquisition of volume limited optical sections through the cell and media. Excitation (637 nm) and emission (>665 nm) values for the probe analysis were the optimal conditions. The data sets obtained were processed and assembled into a single maximum projection image.
The patterns were analysed after 30 min incubation at different z depths and eliminating the solution background. The nucleus/cytoplasm ratio was calculated to quantify the localisation of the probe per cell.
A Radiance CLSM (BioRad Microscience) was used attached to an inverted Nikon microscope. Image acquisition was performed using excitation (637 nm) and emission (>665 nm) wavelengths. The histogram plot reports the nucleus/cytoplasm index to determine DNA binding in live cells. The calibration bar represents 10 μm.
The compounds BST-108, BST-109 were analysed in the same way.

[4] = system: MCF7; assay: MTT cellular viability (growth inhibition) assay, MCF7; type: cell-based; details: Homo sapiens, 0.25-100 μM, 72 h, Table 3
Method: as §1, §2

[5] = system: A549 cells; assay: Pulse exposure to probes, time-lapse, reimaged after 72 h; type: cell-based, human; details: 20 uM for 15 mins, washout, T=72 h
Method: In this regard, A549 cells were seeded in a 24 well coverslip bottomed-plate, cultured overnight in McCoys media for 24 or 48 hours. The plates were placed onto an inverted automated microscope, with the capacity for acquiring an image sequence of different wells (therefore exposure to different agent labelling). An Axiovert 100 microscope (Carl Zeiss, Welwyn Garden City, UK) was fitted with an incubator for 37° C./5% CO2 maintenance (Solent Scientific, Portsmouth, UK), and an ORCA-ER CCD camera (Hamamatsu, Reading, UK). Illumination was controlled by a shutter in front of the transmission lamp, and an x, y positioning stage with separate z-focus (Prior Scientific, Cambridge, UK) controlled multi-field acquisition. Image capture was controlled using Metamorph software.
Cells were exposed to a constant dose (0-5 μM) or a pulsed dose of 0 or 20 μM agent for 15 minutes followed by washout with warmed full media.
All images were collected with a ×10 (PH1) apochromat objective lens providing a field size of 500 times 500 microns. In this case a phase contrast image was collected every 30 minutes for 72 hours. Single cell growth and expansion can be tracked over time. The cells were harvested and run through a flow cytometry (typically a FACS Calibur 635 nm excitation/661/16 emission).
A549 cells were loaded with 20 uM BST-101, BST-109 or BST-110 for 15 mins followed by washout. Cells were then time-lapsed and reimaged after T=72 h, as before, […]

[6] = Absorption and fluorescence spectra of compounds in PBS or HEPES; type: physicochemical; details: for fluorescence emission, 540 nm (Ex in PBS): excited at 540 nm
Method: The compounds were exited at 540 nm and at the wavelength of their absorption peak 1 (λ1 nm). The far-red fluorescent DNA dye DRAQ5 was used as reference.
Compounds were dissolved in DMSO (Sigma) to 20 mM stock concentration. DRAQ5 (Biostatus Ltd) was used as a control anthraquinone agent dissolved in deionised water. Working solutions were prepared in PBS (phosphate buffered saline; Sigma) or HEPES (4-(2-hydroxyethyl)-1-piperazineethanesulfonic acid; Sigma) at 20 or 40 μM. Probe solutions (20 μM), respectively in PBS or HEPES, were pipetted into a 1 mL quartz cuvette (Thermo Fisher Scientific). After obtaining baseline spectra in relevant buffer to zero the instrument, absorbance measurements were obtained using a Beckmann Coulter DU 800 UV/Visible spectrophotometer. The excitation wavelengths were scanned from 280 to 800 nm. Fluorescent spectral scans were performed using a Perkin Elmer LS-50B Luminescence spectrophotometer. To obtain emission scans, the excitation wavelength was set accordingly to the maximum values for each agent or another designated excitation wavelength that matches typical laser lines; and the emission wavelength were scanned from 400 nm to 900 nm in 1 nm increments. A Xenon flash lamp was used as the light source, with the lamp energy set to high. For each data point ten measurements were acquired with the photomultiplier tube sensitivity set at 125.
Compounds were excited at a wavelength corresponding to the first absorbance peak 1 (FIG. 1A and FIG. 1B show absorption (line) and fluorescence (dots) spectra of compounds; both are normalised to peak value.

[7] = system: A549 live cells; assay: Loading of A549 live cells, wide-field fluorescence microscopy; type: cell-based, human; details: 20 μM, 30 min incubation, FIG. 3
Method: as §3, §4
Low resolution wide-field fluorescence microscopy was used to evaluate cell uptake and localisation of the probe compounds. The system was an Axiovert 100 microscope (Carl Zeiss, Welwyn Garden City, UK) ×10 0.3 NA air objective lens and an ORCA-ER CCD camera (Hamamatsu, Reading, UK). Illumination was controlled by a shutter in front of the transmission lamp. Image capture was controlled using Metamorph software. Human non-small cell lung cancer A549 cell line was used as the cell model to determine whether variation of the probe loading and localisation occurred in cell population sustaining a “side population” (SP) (Smith P J, Wiltshire M, Chappell S C, Cosentino L, Burns P A, Pors K, Errington R J. Kinetic analysis of intracellular Hoechst 33342—DNA interactions by flow cytometry: misinterpretation of side population status? Cytometry A 2013; 83:161-9) with a known capacity to efflux xenobiotic molecules, including the DNA dye Hoechst 33342.
Cells were incubated for 30 min with each compound and then images were collected at a 30 ms exposure time using low resolution wide-field fluorescence microscopy. Using an Axiovert 100 microscope (Carl Zeiss, Welwyn Garden City, UK) ×10 0.3 NA air objective lens and an ORCA-ER CCD camera (Hamamatsu, Reading, UK). Illumination was controlled by a shutter in front of the transmission lamp. Image capture was controlled using Metamorph software. The calibration bar represents 50 μm.

[8] = system: MCP1; assay: Further tests against cell lines, MCP1; type: cell-based; details: ratio to A2780
Method: (§5) Further tests were carried out against A2780, 2780AD and MCP1 cell lines.

[9] = system: 2780AD; assay: Further tests against cell lines, 2780AD; type: cell-based; details: ratio to A2780
Method: as §5

[10] = system: 2780/cp70; assay: Further tests against cell lines, 2780/cp70; type: cell-based; details: ratio to A2780

| IC50 [1] | IC50 [4] | peak excitation wavelength ([6]; excitation wavelength used for fluorescence spectra of FIG. 1A/1B) | fluorescence emission, 540 nm (Ex in PBS) ([6]; PBS, 20 μM) | fluorescence emission, λ1 nm (Ex in HEPES) ([6]; excited at absorption peak 1 (λ1), HEPES, 20 μM) | fluorescence emission, λ1 nm (Ex in PBS) ([6]; excited at absorption peak 1 (λ1), PBS, 20 μM) | Structure (SMILES) | staining pattern in fixed cells [2] | subcellular localisation by CLSM [3] | cell division and signal retention / location after pulse exposure [5] | staining pattern in live cells [7] | fluorescence brightness / background in fixed cells [2] | RF (MCP1) [8] | RF (2780AD) [9] | RF (2780/cp70) [10] |
| --- | --- | --- | --- | --- | --- | --- | --- | --- | --- | --- | --- | --- | --- | --- |
| > 100 µM | 0.75 µM | 540 nm | 712 nm | – | – | COC(CCCCNc1ccc(NCCCCC(OC)OC)c2c1C(=O)c1ccccc1C2=O)OC [BST-101, 1,4-Bis(5,5-dimethoxypentylamino)anthracene-9,10-dione] | diffuse cytoplasmic staining, with some perinuclear and nucleoli labelling | low levels of probe in the perinuclear region, with probable overload in Golgi body and large vesicles | dividing, and signal retained in the same membrane compartment as at the start | heterogeneous cytoplasmic staining | – | – | – | – |
| – | – | – | 690 nm | 684 nm | 688 nm | COC(CNCCNc1ccc(NCCNCC(OC)OC)c2c1C(=O)c1c(O)ccc(O)c1C2=O)OC [BST-200, 1,4-bis((2-((2,2-dimethoxyethyl)amino)ethyl)amino)-5,8-dihydroxyanthracene-9,10-dione] | cytoplasmic staining, good object recognition, and some heterogeneity on nuclear staining | – | – | heterogeneity on cytoplasmic load on, with bright fluorescence signal and staining of mitotic figures | very bright fluorescence | 0.26 | 2.9 | 0.09 |
